Where “and” joins values, the source holds several entries; their conditions need not be identical. Equal values may be shown once. Read-outs that look alike come from different tables or passages of the source. One block for each compound: values may come before it.
Legend:
[1] = UV-vis spectra of trans and PSS cis states in HBSS buffer; assay type: physicochemical; conditions: 25 μM in HBSS buffer containing 1% DMSO
Procedure: (§1) Experimental procedures – Photochemistry
UV−Vis spectra were recorded using a Thermo-scientific Evolution 201 PC spectrophotometer equipped with a thermostated cell holder set at 20 °C. Fits of UV−vis spectroscopy data were generated using Prism 10.1.0. Illumination for almost all photochemical experiments was executed using a Sutter instruments Lambda LS with a 300 W full-spectrum lamp connected to a Sutter instruments Lambda 10-3 optical filter changer equipped with 360 ± 10 nm, 434 ± 9 nm 494 ± 9 nm, or a Lambda 721 optical beam combiner system equipped with 365 ± 11 nm and 506 ± 14 nm filter. The light intensity used for the lambda 10-3 optical filter is 0.93 mW/mm2 using the 360 ± 20 nm filter, 0.79 mW/mm2 for the 434 ± 9 nm filter, 0.77 mW/mm2 for the 494 ± 9 nm filter as measured using a Thorlabs PM16−401 power meter. The light intensity used for the lambda 721 optical beam combiner is 200 mW using the 365 ± 11 nm filter and 60 mW for the 506 ± 12 nm filter. For photochemical analyses, illuminations were performed in Hellma Suprasil quartz 114QS cuvettes. For the dynamic illuminations, a 4-way cuvette holder (Avantes) was used. The left outlet of the holder is connected to an Avantes AvaLight-DH-S-BAL Deuterium lamp. The right outlet is connected through a fiber to an AvaSpec UV/Vis spectrometer. The lower outlet is connected to a Lambda 721 optical beam combiner system equipped with 365 ± 11 nm and 506 ± 14 nm filter illumination means. The upper outlet is covered with a black cap. The temperature of the solution in the cuvette (20 °C) is controlled by Q-blue Wireless Temperature Control software. […]
The typical distance […]
between light source and vial or cuvette was 2 cm.

[2] = Photostationary state area percentages by LC-MS at the isosbestic point; assay type: physicochemical; conditions: for PSScis (area %cis): after illumination of trans isomer with 365 ± 10 nm at 1 mM in DMSO for 10 min
[3] = Thermal relaxation of PSS cis states (Arrhenius extrapolation); assay type: physicochemical; conditions: approximate; HBSS buffer + 1% DMSO, extrapolated to 20 °C
Procedure: as §1
UV−Vis spectra were recorded using a Thermo-scientific Evolution 201 PC spectrophotometer equipped with a thermostated cell holder set at 20 °C. Fits of UV−vis spectroscopy data were generated using Prism 10.1.0. Illumination for almost all photochemical experiments was executed using a Sutter instruments Lambda LS with a 300 W full-spectrum lamp connected to a Sutter instruments Lambda 10-3 optical filter changer equipped with 360 ± 10 nm, 434 ± 9 nm 494 ± 9 nm, or a Lambda 721 optical beam combiner system equipped with 365 ± 11 nm and 506 ± 14 nm filter. The light intensity used for the lambda 10-3 optical filter is 0.93 mW/mm2 using the 360 ± 20 nm filter, 0.79 mW/mm2 for the 434 ± 9 nm filter, 0.77 mW/mm2 for the 494 ± 9 nm filter as measured using a Thorlabs PM16−401 power meter. The light intensity used for the lambda 721 optical beam combiner is 200 mW using the 365 ± 11 nm filter and 60 mW for the 506 ± 12 nm filter. For photochemical analyses, illuminations were performed in Hellma Suprasil quartz 114QS cuvettes. For the dynamic illuminations, a 4-way cuvette holder (Avantes) was used. The left outlet of the holder is connected to an Avantes AvaLight-DH-S-BAL Deuterium lamp. The right outlet is connected through a fiber to an AvaSpec UV/Vis spectrometer. The lower outlet is connected to a Lambda 721 optical beam combiner system equipped with 365 ± 11 nm and 506 ± 14 nm filter illumination means. The upper outlet is covered with a black cap. The temperature of the solution in the cuvette (20 °C) is controlled by Q-blue Wireless Temperature Control software.
Thermal relaxation experiments and Arrhenius extrapolations were performed according to Priimagi et al20, using a compound concentration of 25 μM in HBSS +1% DMSO and temperatures of 50, 60, and 70 °C. Illuminations for pharmacological experiments were performed in cylindrical clear glass vials with a volume of 4.5 mL. The typical distance between light source and vial or cuvette was 2 cm.

H3R [4] = target: T1, H3R (Homo sapiens, UniProt Q9Y5N1); assay: [3H]NAMH competition radioligand binding on cell homogenates overexpressing H3R; conditions: for Fold Ki shift: (high-affinity state)/(low-affinity state); for Ki: [3H]NAMH competition, n = 3
T1 sequence (Q9Y5N1 whole entry): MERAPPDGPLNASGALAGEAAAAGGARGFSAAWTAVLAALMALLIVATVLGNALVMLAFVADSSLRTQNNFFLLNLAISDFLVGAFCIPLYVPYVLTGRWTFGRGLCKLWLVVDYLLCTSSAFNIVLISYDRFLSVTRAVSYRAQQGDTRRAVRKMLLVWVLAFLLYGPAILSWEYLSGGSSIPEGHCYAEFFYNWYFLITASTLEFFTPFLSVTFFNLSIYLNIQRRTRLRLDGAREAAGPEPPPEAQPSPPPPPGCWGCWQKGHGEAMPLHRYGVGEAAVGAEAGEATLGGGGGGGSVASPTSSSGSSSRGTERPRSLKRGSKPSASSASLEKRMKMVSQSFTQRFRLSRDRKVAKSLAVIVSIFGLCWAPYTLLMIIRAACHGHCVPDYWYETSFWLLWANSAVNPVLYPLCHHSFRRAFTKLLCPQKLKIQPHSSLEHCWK

hH3R = hH3R (Homo sapiens, UniProt Q9Y5N1); assay: Competition binding of non-labeled ligands with trans-[3H]3f on hH3R-expressing cell homogenates
hH3R, sequence (Q9Y5N1 whole entry): as above

H3R [5] = target: T1, H3R; assay: Functional H3R NanoBiT-PKA (cAMP sensor) assay in transiently transfected HEK293T cells; assay type: cell-based; conditions: inhibition of forskolin-stimulated cAMP signal, agonist alone
H3R [6] = target: T1, H3R; assay: Association and dissociation radioligand binding experiments with [3H]3f; conditions: for dissociation t 1/2: t1/2 = ln 2/k off; for Kd: from k off/k on, read-out: pK d(k in) calculated kinetic affinity (converted)
Procedure: (§2) To determine non-specific
(§3) specific binding from the total binding.
(§4) intervals ranging from 0-20 minutes.
(§5) was measured as described above.
(§6) model to obtain Kd values.

H3R [7] = target: T1, H3R; assay type: binding
Procedure: as §2, §3, §4, §5, §6

H3R [8] = target: T1, H3R; conditions: ref Hauwert et al., cited from earlier work
[9] = parameters: method as in Hauwert et al.; conditions: 25 μM in HBSS buffer containing 1% DMSO; ref Hauwert et al.; cited from earlier work
[10] = parameters: method as in Hauwert et al.; conditions: ref Hauwert et al., cited from earlier work
[11] = parameters: method as in Hauwert et al.; conditions: approximate, extrapolated to 20 °C; ref Hauwert et al.; cited from earlier work
[12] = illumination of PSS cis state with 506 ± 20 nm at 1 mM in DMSO for 10 min
[13] = ↓ lower affinity of PSS cis state than trans
[14] = ↑ higher affinity of PSS cis state than trans

- λmax cis [1]: 440 nm
- λmax trans [1]: 349 nm
- PSScis (area %cis) [2]: 94 area %
- PSStrans (area %trans) [2, 12]: 95 area %
- Half-life (thermal relaxation of PSS cis state) [3]: 25 days
- Fold Ki shift (H3R [4]; [13]): 20.0 ↓ fold
SMILES: Cc1nn(C2CCOCC2)c(C)c1/N=N/c1ccc(O[C@H]2C[C@H](N3CCCCC3)C2)cc1 [Compound 3c]

- Ki (hH3R): 3.16 nM
SMILES: c1nc(CC2CCNCC2)c[nH]1 [immepip, reference compound]

SMILES: c1cc(Cc2cnc[nH]2)ccn1 [immethridine, reference compound]
- EC50 (H3R [5]): 0.794 nM

- time at which binding to H3R reaches equilibrium (H3R [6]; 0.5 nM trans state): 15 min
- kon (H3R [6]; PSS cis state (preilluminated trans-[3H]3f)): 217000 M⁻¹ s⁻¹
- dissociation t 1/2 (H3R [6]; PSS cis state, clobenpropit): 6.2 ± 0.2 min
- dissociation t 1/2 (H3R [6]; PSS cis state, clobenpropit, listed as [^3H]3f-PSS cis): 6.2 ± 0.4 min
- koff (H3R [6]; PSS cis state, dissociation initiated with clobenpropit): 0.00183 s⁻¹
- Kd (H3R [6]; PSS cis state): 12.6 nM
- fold lower k on value compared to trans-[3H]3f (H3R [6]; PSS cis versus trans): 10 fold
- kon (H3R [6]; trans state, 0.5 nM): 2.15e+06 M⁻¹ s⁻¹
- dissociation t 1/2 (H3R [6]; trans state, clobenpropit (10 μM)): 4.9 ± 0.4 min
- koff (H3R [6]; trans state, dissociation initiated with 10 μM clobenpropit): 0.0025 s⁻¹
- Kd (H3R [6]; trans state): 1.26 nM
- H3R binding remaining after exposure to 365 nm light (H3R [7]; prebound trans state 0.5 nM, no competitor present): approximately 0%
- dissociation t 1/2 (H3R [7]; prebound trans state, 365 nm light, t1/2 = ln 2/k off): 0.8 ± 0.2 min
- fold faster dissociation kinetics upon 365 nm illumination (H3R [7]; prebound trans, 365 nm light versus dissociation of dark trans-[3H]3f): 6.2 fold
SMILES: [3H]C([3H])([3H])N1CCC(n2nc(C)c(/N=N/c3ccc(O[C@H]4C[C@H](N5CCCCC5)C4)cc3)c2C)CC1 [[^3H]3f]

SMILES: c1ccc(/N=N/c2ccc(OCCCN3CCCCC3)cc2)cc1 [Compound 1]
- pKi PSScis ± SEM (H3R [8]; PSS cis state, [3H]NAMH competition): 8.1 ± 0.1
- pKi trans ± SEM (H3R [8]; trans isomer, [3H]NAMH competition): 7.3 ± 0.1
- Fold Ki shift (H3R [8]; [14]): 6.3 ↑ fold
- λmax cis [9]: 432 nm
- λmax trans [9]: 344 nm
- PSScis (area %cis) ([10]; after illumination of trans isomer with 365 ± 10 nm): 97 area %
- PSStrans (area %trans) ([10]; illumination of PSS cis state with 434 ± 20 nm): 68 area %
- Half-life (thermal relaxation of PSS cis state) [11]: 11 days

- λmax cis [1]: 439 nm
- λmax trans [1]: 347 nm
- PSScis (area %cis) [2]: 95 area %
- PSStrans (area %trans) [2, 12]: 93 area %
- Half-life (thermal relaxation of PSS cis state) [3]: 18 days
- Fold Ki shift (H3R [4]; [13]): 7.9 ↓ fold
- fold improved Ki value of trans isomer compared to trans-2 (H3R [4]; trans isomers): more than 10 fold
SMILES: Cc1nn(C)c(C)c1/N=N/c1ccc(O[C@H]2C[C@H](N3CCCCC3)C2)cc1 [Compound 3a]

- λmax cis [1]: 440 nm
- λmax trans [1]: 351 nm
- PSScis (area %cis) [2]: 88 area %
- PSStrans (area %trans) [2, 12]: 94 area %
- Half-life (thermal relaxation of PSS cis state) [3]: 7 days
- Fold Ki shift (H3R [4]; [13]): 12.6 ↓ fold
SMILES: Cc1nn(C2CCCCC2)c(C)c1/N=N/c1ccc(O[C@H]2C[C@H](N3CCCCC3)C2)cc1 [Compound 3b]

- λmax cis [1]: 425 nm
- λmax trans [1]: 350 nm
- PSScis (area %cis) [2]: 97 area %
- PSStrans (area %trans) ([2]; illumination of PSS cis state with 434 ± 20 nm at 1 mM in DMSO for 10 min): 74 area %
- Half-life (thermal relaxation of PSS cis state) [3]: 2 days
- Fold Ki shift (H3R [4]; [14]): 4 fold and 4.0 ↑ fold
- Ki (H3R [4]; pKi PSScis ± SEM, PSS cis state): 2.51 nM
SMILES: c1ccc(/N=N/c2ccc(O[C@H]3C[C@H](N4CCCCC4)C3)cc2)cc1 [Compound 2]

- λmax cis [1]: 434 nm
- λmax trans [1]: 346 nm
- PSScis (area %cis) [2]: 99 area %
- PSStrans (area %trans) [2, 12]: 92 area %
- Half-life (thermal relaxation of PSS cis state) [3]: 29 days
- Fold Ki shift (H3R [4]; [13]): 25.1 ↓ fold
- Ki (H3R [4]; pKi trans ± SEM, trans isomer): 0.501 nM
SMILES: Cc1nn(C2CCNCC2)c(C)c1/N=N/c1ccc(O[C@H]2C[C@H](N3CCCCC3)C2)cc1 [Compound 3e]

From paper PMC12257542, “A Radiolabeled Photoswitchable G Protein-Coupled Receptor Antagonist Enlightens Ligand Binding Kinetics Associated with Photoswitching” (Journal of the American Chemical Society, 2025)
